Where two headings read alike, the source gives them in different places.
What was measured:
Format in all cases: biochemical
[1] = test system: OATA W58L; details: pH 7
[2] = test system: OATA W58L
[3] = test system: OATA W58A
[4] = test system: OATA W58L; remark: listed apart in the source
[5] = test system: OATA W58A; details: pH 7
[6] = test system: OATA W58V; details: pH 7
[7] = test system: OATA W58I; details: pH 7
[8] = test system: OATA W58M; details: pH 7
[9] = test system: OATA L57A/W58A/V154A
[10] = test system: OATA L57A/W58A
[11] = test system: OATA L57A/W58A/V154A; remark: listed apart in the source
[12] = test system: OATA L57C/W58L/I261A

## 1-acetonaphthone [Ketone 1i]
[1]
  Relative activity to acetophenone, OATA W58L: 47%
[2]
  Conversion (%) OATAW58L: 75%

## CC(N)CO (racemic) [DL-Alaninol]
[3]
  Relative reactivity, OATA W58A: 13%
[4]
  Relative reactivity, OATA W58L: 39%

## CC(C)C(C)N (stereo not shown) [1,2-Dimethylpropylamine]
[3]
  Relative reactivity, OATA W58A: 101%
[4]
  Relative reactivity, OATA W58L: 305%

## CC(C)CC(C)N (stereo not shown) [1,3-Dimethylbutylamine]
[3]
  Relative reactivity, OATA W58A: 173%
[4]
  Relative reactivity, OATA W58L: 283%

## COCC(C)N (stereo not shown) [1-Methoxy-2-propylamine]
[3]
  Relative reactivity, OATA W58A: 126%
[4]
  Relative reactivity, OATA W58L: 119%

## CC(N)CCc1ccccc1 (stereo not shown) [1-Methyl-3-phenylpropylamine]
[3]
  Relative reactivity, OATA W58A: 151%
[4]
  Relative reactivity, OATA W58L: 202%

## CCC(=O)CO [1-hydroxy-2-butanone]
[5]
  Relative activity to acetophenone, OATA W58A: 9%
[6]
  Relative activity to acetophenone, OATA W58V: 8%
[7]
  Relative activity to acetophenone, OATA W58I: 16%
[8]
  Relative activity to acetophenone, OATA W58M: 21%

## CC(C)(C)C(N)c1ccccc1 (stereo not shown) [2,2-Dimethyl-1-phenylpropan-1-amine]
[3]
  Relative reactivity, OATA W58A: 3%
[4]
  Relative reactivity, OATA W58L: 2%

## CCCC(C)N (stereo not shown) [2-Aminopentane]
[3]
  Relative reactivity, OATA W58A: 194%
[4]
  Relative reactivity, OATA W58L: 272%

## O=C(CO)c1ccccc1 [2-hydroxyacetophenone]
[5]
  Relative activity to acetophenone, OATA W58A: 61%
[6]
  Relative activity to acetophenone, OATA W58V: 70%
[7]
  Relative activity to acetophenone, OATA W58I: 73%
[8]
  Relative activity to acetophenone, OATA W58M: 65%

## CC(=O)C(C)O (stereo not shown) [3-hydroxy-2-butanone]
[5]
  Relative activity to acetophenone, OATA W58A: 20%
[6]
  Relative activity to acetophenone, OATA W58V: 29%
[7]
  Relative activity to acetophenone, OATA W58I: 23%
[8]
  Relative activity to acetophenone, OATA W58M: 32%

## CC(C)C(=O)C(=O)O [3-methyl-2-oxobutyric acid]
[9]
  Relative activity, OATA L57A/W58A/V154A: 11%

## CC(N)c1ccc(F)cc1 (stereo not drawn) [4-Fluoro-α-methylbenzylamine]
[3]
  Relative reactivity, OATA W58A: 117%
[4]
  Relative reactivity, OATA W58L: 283%

## CC(=O)CCO [4-hydroxy-2-butanone]
[5]
  Relative activity to acetophenone, OATA W58A: 17%
[6]
  Relative activity to acetophenone, OATA W58V: 20%
[7]
  Relative activity to acetophenone, OATA W58I: 20%
[8]
  Relative activity to acetophenone, OATA W58M: 29%

## C[C@H](N)c1cccc2ccccc12 [(S)-1-(1-naphthyl)ethylamine]
[3]
  Relative reactivity, OATA W58A: 0.7%
[4]
  Relative reactivity, OATA W58L: 2%
[10]
  Relative activity, OATA L57A/W58A: 18%
[11]
  Relative activity, OATA L57A/W58A/V154A: 60%

## C[C@H](N)C1CC1 [(S)-1-Cyclopropylethylamine]
[3]
  Relative reactivity, OATA W58A: 79%
[4]
  Relative reactivity, OATA W58L: 233%

## N[C@H]1CCc2ccccc21 [(S)-1-aminoindan]
[3]
  Relative reactivity, OATA W58A: 100%
[4]
  Relative reactivity, OATA W58L: 54%

## CCCC[C@H](C)N [(S)-2-aminohexane]
[3]
  Relative reactivity, OATA W58A: 116%
[4]
  Relative reactivity, OATA W58L: 306%

## CCCCCC[C@H](C)N [(S)-2-aminooctane]
[3]
  Relative reactivity, OATA W58A: 99%
[4]
  Relative reactivity, OATA W58L: 255%

## COc1ccc([C@H](C)N)cc1 [(S)-4-methoxy-α-methylbenzylamine]
[3]
  Relative reactivity, OATA W58A: 44%
[4]
  Relative reactivity, OATA W58L: 98%

## Cc1ccc([C@H](C)N)cc1 [(S)-α,4-dimethylbenzylamine]
[3]
  Relative reactivity, OATA W58A: 45%
[4]
  Relative reactivity, OATA W58L: 78%

## CC[C@H](N)c1ccccc1 [(S)-α-ethylbenzylamine]
[3]
  Relative reactivity, OATA W58A: 44%
[4]
  Relative reactivity, OATA W58L: 20%
[10]
  Relative activity, OATA L57A/W58A: 202%
[11]
  Relative activity, OATA L57A/W58A/V154A: 707%

## CC(=O)c1ccc(C)cc1 [Ketone 1d, 4-methylacetophenone]
[5]
  Relative activity to acetophenone, OATA W58A: 56%
[6]
  Relative activity to acetophenone, OATA W58V: 52%
[7]
  Relative activity to acetophenone, OATA W58I: 74%
[1]
  Relative activity to acetophenone, OATA W58L: 51%
[8]
  Relative activity to acetophenone, OATA W58M: 68%
[12]
  Relative activity, OATA L57C/W58L/I261A: 1,096%
[2]
  Conversion (%) OATAW58L: 91%

## COc1ccc(C(C)=O)cc1 [Ketone 1e, 4-methoxyacetophenone]
[5]
  Relative activity to acetophenone, OATA W58A: 30%
[6]
  Relative activity to acetophenone, OATA W58V: 30%
[7]
  Relative activity to acetophenone, OATA W58I: 38%
[1]
  Relative activity to acetophenone, OATA W58L: 34%
[8]
  Relative activity to acetophenone, OATA W58M: 42%
[12]
  Relative activity, OATA L57C/W58L/I261A: 4,017%

## O=C1CCCc2ccccc21 [Ketone 1h, α-tetralone]
[5]
  Relative activity to acetophenone, OATA W58A: 19%
[6]
  Relative activity to acetophenone, OATA W58V: 12%
[7]
  Relative activity to acetophenone, OATA W58I: 16%
[1]
  Relative activity to acetophenone, OATA W58L: 0.7%
[8]
  Relative activity to acetophenone, OATA W58M: 17%
[12]
  Relative activity, OATA L57C/W58L/I261A: 243%

## CCCC(C)=O [Ketone 1j, 2-pentanone]
[5]
  Relative activity to acetophenone, OATA W58A: 15%
[6]
  Relative activity to acetophenone, OATA W58V: 28%
[7]
  Relative activity to acetophenone, OATA W58I: 21%
[1]
  Relative activity to acetophenone, OATA W58L: 141%
[8]
  Relative activity to acetophenone, OATA W58M: 25%

## CCCCC(C)=O [Ketone 1k, 2-hexanone]
[5]
  Relative activity to acetophenone, OATA W58A: 52%
[6]
  Relative activity to acetophenone, OATA W58V: 62%
[7]
  Relative activity to acetophenone, OATA W58I: 54%
[1]
  Relative activity to acetophenone, OATA W58L: 281%
[8]
  Relative activity to acetophenone, OATA W58M: 57%
[2]
  Conversion (%) OATAW58L: 93%

## CCCCCCC(C)=O [Ketone 1l, 2-octanone]
[5]
  Relative activity to acetophenone, OATA W58A: 122%
[6]
  Relative activity to acetophenone, OATA W58V: 140%
[7]
  Relative activity to acetophenone, OATA W58I: 73%
[1]
  Relative activity to acetophenone, OATA W58L: 209%
[8]
  Relative activity to acetophenone, OATA W58M: 81%
[12]
  Relative activity, OATA L57C/W58L/I261A: 13,757%
[2]
  Conversion (%) OATAW58L: 91%

## CC(=O)C(C)C [Ketone 1m, 3-methyl 2-butanone]
[5]
  Relative activity to acetophenone, OATA W58A: 21%
[6]
  Relative activity to acetophenone, OATA W58V: 29%
[7]
  Relative activity to acetophenone, OATA W58I: 26%
[1]
  Relative activity to acetophenone, OATA W58L: 78%
[8]
  Relative activity to acetophenone, OATA W58M: 29%

## CC(=O)CC(C)C [Ketone 1n, 4-methyl-2-pentanone]
[5]
  Relative activity to acetophenone, OATA W58A: 46%
[6]
  Relative activity to acetophenone, OATA W58V: 35%
[7]
  Relative activity to acetophenone, OATA W58I: 41%
[1]
  Relative activity to acetophenone, OATA W58L: 61%
[8]
  Relative activity to acetophenone, OATA W58M: 38%

## CCC(C)=O [Ketone 2-butanone, 2-butanone]
[5]
  Relative activity to acetophenone, OATA W58A: 16%
[6]
  Relative activity to acetophenone, OATA W58V: 17%
[7]
  Relative activity to acetophenone, OATA W58I: 20%
[1]
  Relative activity to acetophenone, OATA W58L: 78%
[8]
  Relative activity to acetophenone, OATA W58M: 25%

## Cc1cccc(C)c1OCC(C)N (stereo not shown) [Mexiletine, reference compound]
[3]
  Relative reactivity, OATA W58A: 197%
[4]
  Relative reactivity, OATA W58L: 284%

## CC(C)=O [acetone]
[5]
  Relative activity to acetophenone, OATA W58A: 19%
[6]
  Relative activity to acetophenone, OATA W58V: 18%
[7]
  Relative activity to acetophenone, OATA W58I: 18%
[8]
  Relative activity to acetophenone, OATA W58M: 19%

## CC(=O)CO [hydroxyacetone]
[5]
  Relative activity to acetophenone, OATA W58A: 31%
[6]
  Relative activity to acetophenone, OATA W58V: 32%
[7]
  Relative activity to acetophenone, OATA W58I: 42%
[1]
  Relative activity to acetophenone, OATA W58L: 23%
[8]
  Relative activity to acetophenone, OATA W58M: 44%

## COCC(C)=O [methoxyacetone]
[5]
  Relative activity to acetophenone, OATA W58A: 135%
[6]
  Relative activity to acetophenone, OATA W58V: 152%
[7]
  Relative activity to acetophenone, OATA W58I: 166%
[1]
  Relative activity to acetophenone, OATA W58L: 424%
[8]
  Relative activity to acetophenone, OATA W58M: 159%

## (S)-sec-butylamine
[3]
  Relative reactivity, OATA W58A: 66%
[4]
  Relative reactivity, OATA W58L: 266%

## cyclpropyl methyl ketone [Ketone 1o]
[5]
  Relative activity to acetophenone, OATA W58A: 14%
[6]
  Relative activity to acetophenone, OATA W58V: 14%
[7]
  Relative activity to acetophenone, OATA W58I: 17%
[1]
  Relative activity to acetophenone, OATA W58L: 4%
[8]
  Relative activity to acetophenone, OATA W58M: 19%

Source: patent US10308916B2, “Omega-transaminase mutants with activity improvements toward ketones and methods for producing optically pure amines” (Industry-Academic Cooperation Foundation, Yonsei University, priority 2015, dated 2019)
